Source: ChEMBL document CHEMBL4359834 (J Med Chem, 2019)

Tests used:
[1] = Half-life clearance in human hepatocytes; assay type: ADME, cell-based, Hepatocyte
[2] = Half-life in mouse hepatocytes; assay type: ADME, cell-based, Hepatocyte
[3] = Half-life in dog hepatocytes; assay type: ADME, cell-based, Canis lupus familiaris, Hepatocyte
[4] = Intrinsic clearance in rat hepatocytes assessed per 10^6 cells; assay type: ADME, cell-based, Hepatocyte; details: read-out: CLH
[5] = Half-life in rat hepatocytes; assay type: ADME, cell-based, Hepatocyte
[6] = Intrinsic clearance in mouse hepatocytes assessed per 10^6 cells; assay type: ADME, cell-based, Hepatocyte; details: read-out: CLH
[7] = Intrinsic clearance in human hepatocytes assessed per 10^6 cells; assay type: ADME, cell-based, Hepatocyte; details: read-out: CLH
[8] = Intrinsic clearance in dog hepatocytes assessed per 10^6 cells; assay type: ADME, cell-based, Canis lupus familiaris, Hepatocyte; details: read-out: CLH
[9] = Inhibition of Class 1 PI3K/mTOR in human A2058 cells assessed as reduction in Akt phosphorylation at Ser473 residue incubated for 1 hr by InCell Western assay; assay type: cell-based; details: A2058, 1 h
[10] = biological target: Serine/threonine-protein kinase mTOR (Homo sapiens, UniProt P42345); assay: Displacement of Alexafluor labelled kinase tracer314 from recombinant human C-terminal GST-tagged mTOR (1360 to 2549 amino acids) expressed in insect cells incubated for 1 hr by FRET-based LanthaScreen Eu kinase binding assay
cells = details: Homo sapiens, A2058, 1 h
Description: Inhibition of Class 1 PI3K/mTOR in human A2058 cells assessed as reduction in S6 phosphorylation at Ser235/236 residue incubated for 1 hr by InCell Western assay

[11] = biological target: Phosphatidylinositol 4,5-bisphosphate 3-kinase catalytic subunit alpha isoform (Homo sapiens, UniProt P42336); assay: Displacement of Alexafluor labelled kinase tracer314 from recombinant N-terminal His6-tagged PI3K p110alpha (unknown origin) incubated for 1 hr by FRET-based LanthaScreen Eu kinase binding assay
Chain of Phosphatidylinositol 4,5-bisphosphate 3-kinase catalytic subunit alpha isoform (P42336 whole entry, canonical isoform): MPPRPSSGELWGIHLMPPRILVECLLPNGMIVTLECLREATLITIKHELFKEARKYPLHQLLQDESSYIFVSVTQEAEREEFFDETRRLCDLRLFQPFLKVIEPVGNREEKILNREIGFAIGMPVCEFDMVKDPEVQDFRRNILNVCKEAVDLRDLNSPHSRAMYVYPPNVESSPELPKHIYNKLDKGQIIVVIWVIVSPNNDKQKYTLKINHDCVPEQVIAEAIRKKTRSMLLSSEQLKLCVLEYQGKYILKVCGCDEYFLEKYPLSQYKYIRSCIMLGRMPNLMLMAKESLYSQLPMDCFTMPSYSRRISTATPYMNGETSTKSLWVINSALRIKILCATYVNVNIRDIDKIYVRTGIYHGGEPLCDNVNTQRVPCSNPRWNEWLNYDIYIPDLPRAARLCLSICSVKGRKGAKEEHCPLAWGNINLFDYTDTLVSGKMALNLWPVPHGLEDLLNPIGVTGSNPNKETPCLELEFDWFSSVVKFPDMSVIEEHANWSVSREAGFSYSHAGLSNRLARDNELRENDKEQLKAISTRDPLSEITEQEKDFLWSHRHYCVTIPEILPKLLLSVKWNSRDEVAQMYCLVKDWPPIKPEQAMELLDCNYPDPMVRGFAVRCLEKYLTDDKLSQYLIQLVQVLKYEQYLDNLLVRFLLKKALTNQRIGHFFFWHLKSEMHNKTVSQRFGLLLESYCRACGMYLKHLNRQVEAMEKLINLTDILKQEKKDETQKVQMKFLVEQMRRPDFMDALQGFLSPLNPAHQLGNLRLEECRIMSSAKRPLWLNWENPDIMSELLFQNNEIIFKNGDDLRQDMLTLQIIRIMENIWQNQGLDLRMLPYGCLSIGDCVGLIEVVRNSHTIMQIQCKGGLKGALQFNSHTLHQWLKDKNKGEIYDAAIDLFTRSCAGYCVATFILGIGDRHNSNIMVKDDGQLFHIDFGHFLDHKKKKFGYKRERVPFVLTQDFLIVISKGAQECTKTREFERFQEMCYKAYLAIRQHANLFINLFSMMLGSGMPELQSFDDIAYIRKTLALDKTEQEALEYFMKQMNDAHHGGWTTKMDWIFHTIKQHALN

## CCOc1ccc2ccc(=O)oc2c1
[1]
  half-life: 70 min
[2]
  half-life: 18.7 min
[3]
  half-life: 8.49 min
[4]
  hepatocyte CLint: 30 µL/min/1e6 cells
[5]
  half-life: 46.2 min
[6]
  hepatocyte CLint: 74 µL/min/1e6 cells
[7]
  hepatocyte CLint: 20 µL/min/1e6 cells
[8]
  hepatocyte CLint: 163 µL/min/1e6 cells

## C[C@@H]1COC[C@@H](C)N1c1nc(-c2cnc(N)cc2C(F)(F)F)nc(N2[C@H](C)COC[C@H]2C)n1
[9]
  IC50: > 20000 nM
[10]
  Ki: 1890 nM
cells
  IC50: 14500 nM
[11]
  Ki: > 20000 nM

## Nc1cc(C(F)(F)F)c(-c2nc(N3CCOCC3)nc(N3C4CCC3COC4)n2)cn1
[9]
  IC50: 420 nM
[10]
  Ki: 43.1 nM
cells
  IC50: 156 nM
[11]
  Ki: 19.9 nM

## C[C@H]1COCCN1c1cc(-c2cnc(N)nc2C(F)F)nc(N2CCOCC2)n1
[9]
  IC50: 99.6 nM
[10]
  Ki: 192 nM
cells
  IC50: 387 nM
[11]
  Ki: 2 nM

## C[C@H]1COCCN1c1nc(-c2cnc(N)cc2C(F)(F)F)nc(N2CCOC[C@@H]2C)n1
[9]
  IC50: 248 nM
[10]
  Ki: 137 nM
cells
  IC50: 283 nM
[11]
  Ki: 6.8 nM

## Nc1cc(C(F)(F)F)c(-c2nc(N3C4CCC3COC4)nc(N3C4CCC3COC4)n2)cn1
[9]
  IC50: 755 nM
[10]
  Ki: 76.8 nM
cells
  IC50: 299 nM
[11]
  Ki: 4640 nM

## C[C@H]1COCCN1c1nc(-c2cnc(N)cc2C(F)F)cc(N2CCOCC2)n1
[9]
  IC50: 146 nM
[10]
  Ki: 10 nM
cells
  IC50: 125 nM

## C[C@@H]1COC[C@@H](C)N1c1nc(-c2cnc(N)cc2C(F)(F)F)nc(N2CCOCC2)n1
[9]
  IC50: 435 nM
[10]
  Ki: 64.5 nM
cells
  IC50: 457 nM
[11]
  Ki: 88.9 nM

## C[C@@H]1COC[C@H](C)N1c1nc(-c2cnc(N)cc2C(F)(F)F)nc(N2[C@H](C)COC[C@@H]2C)n1
[9]
  IC50: 567 nM
[10]
  Ki: 39.6 nM
cells
  IC50: 437 nM
[11]
  Ki: 31.4 nM

## C[C@H]1COCCN1c1nc(-c2cnc(N)nc2C(F)F)nc(N2CCOCC2)n1
[9]
  IC50: 32.4 nM
[10]
  Ki: 10.6 nM
cells
  IC50: 63.9 nM

## C[C@H]1COCCN1c1nc(-c2cnc(N)nc2C(F)F)cc(N2CCOCC2)n1
[9]
  IC50: 77.3 nM
[10]
  Ki: 15.3 nM
cells
  IC50: 146 nM
[11]
  Ki: 4.1 nM

## Nc1cc(C(F)(F)F)c(-c2nc(N3CCOCC3)nc(N3CC4CCC(C3)O4)n2)cn1
[9]
  IC50: 274 nM
[10]
  Ki: 47.8 nM
cells
  IC50: 212 nM
[11]
  Ki: 31 nM
